Source: PMC6753139, “TRIM66 reads unmodified H3R2K4 and H3K56ac to respond to DNA damage in embryonic stem cells” (Nature Communications, 2019)
Substitutions are numbered along the chain they refer to.

Columns and labels:
TRIM66 965-1160 D986A = target: T1, TRIM66 965-1160 D986A (Homo sapiens, UniProt O15016, D1121A); test: ITC, point mutant; details: 25 °C, pH 7.5, Weak binding = ITC curves cannot be fitted reliably
T1 construct: GST (N, cleaved yes); made in house; host or cells: Escherichia coli BL21 (DE3)
T1 sequence (O15016 1100-1295 D1121A): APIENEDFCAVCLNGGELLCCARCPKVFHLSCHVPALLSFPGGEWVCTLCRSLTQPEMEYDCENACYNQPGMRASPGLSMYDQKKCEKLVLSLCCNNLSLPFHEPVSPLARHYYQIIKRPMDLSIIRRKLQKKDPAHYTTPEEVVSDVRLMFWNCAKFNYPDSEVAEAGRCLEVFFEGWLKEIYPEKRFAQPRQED
Description: (§1) We further investigated the role of the TRIM66 PHD-Bromodomain in safeguarding the genome. We first introduced a series of single amino acid mutations to the PHD domain at interaction interface and then performed corresponding ITC assays.
(§2) The calorimetric experiments were performed at 25 °C using a MicroCal PEAQ-ITC. The proteins were dialyzed using a buffer containing 20 mM Tris and 100 mM NaCl at pH 7.5. Lyophilized peptides were dissolved in the same buffer and adjusted to pH 7.5 prior to use. Peptide concentrations were estimated from the quantitative NMR experiments[73],[74]. ITC measurements were performed via injection of 0.7–4 mM peptide into a cell containing 0.12 mM TRIM24-PHD-Bromo, 0.05 mM TRIM33 PHD-Bromo, and 0.05 or 0.11–0.15 mM TRIM66-PHD-Bromo (or its mutants). The ITC data were subsequently analyzed using the MicroCal PEAQ-ITC analysis software.

TRIM66 965-1160 D971A = target: T2, TRIM66 965-1160 D971A (Homo sapiens, UniProt O15016, D1106A); test: ITC, point mutant; details: 25 °C, pH 7.5, Weak binding = ITC curves cannot be fitted reliably
T2 construct: GST (N, cleaved yes); made in house; host or cells: Escherichia coli BL21 (DE3)
T2 sequence (O15016 1100-1295 D1106A): T1 sequence (O15016 1100-1295 D1121A) with D7A, A22D
Description: as §1, §2

TRIM66-MUT968-1160 = target: T3, TRIM66-MUT968-1160 (Homo sapiens, UniProt O15016, C1161S/C1165S/C1270S/I1224T/L1137T/M1171K/V1273N/Y1166H); test: ITC, crystallization mutant protein; type: binding; details: 25 °C, 20 mM Tris, 100 mM NaCl, pH 7.5, single measurement
T3 construct: contained residues 968 to 1160 with eight mutated residues; GST (N, cleaved yes); made in house; host or cells: Escherichia coli BL21 (DE3)
T3 sequence (O15016 1103-1295 L1137T/C1161S/C1165S/Y1166H/M1171K/I1224T/C1270S/V1273N): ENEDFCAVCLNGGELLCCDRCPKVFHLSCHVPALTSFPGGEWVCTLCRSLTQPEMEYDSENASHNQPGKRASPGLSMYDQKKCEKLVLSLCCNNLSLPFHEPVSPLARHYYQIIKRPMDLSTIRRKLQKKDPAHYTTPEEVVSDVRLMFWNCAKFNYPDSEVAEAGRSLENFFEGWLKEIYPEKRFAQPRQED
Description: The mutant protein of the TRIM66 PHD-Bromodomain used for the crystallographic study contained residues 968 to 1160 with eight mutated residues (L1002T, C1026S, C1030S, Y1031H, M1036K, I1089T, C1135S, and V1138N). The mutant protein was dialyzed using a buffer containing 20 mM Tris, 100 mM NaCl, and 5 mM DTT at pH 7.5 prior to the crystallographic study. The H3_1-12 peptide was dissolved in the same buffer and adjusted to pH 7.5 with a final concentration of 20 mM. Crystals of the free-state TRIM66-PHD-Bromo mutant were obtained by mixing 8 mg ml^−1 protein with an equal volume of crystallization buffer (30% w/v 5000 MME, 100 mM Tris base/hydrochloric acid pH 8.0, and 200 mM lithium sulfate) using the hanging drop vapor diffusion method at 20 °C. […]
The calorimetric experiments were performed at 25 °C using a MicroCal PEAQ-ITC. […] Peptide concentrations were estimated from the quantitative NMR experiments[73],[74]. […] The ITC data were subsequently analyzed using the MicroCal PEAQ-ITC analysis software. […]
combinational manner (Fig. 1d). To further figure out the binding mode between the TRIM66 PHD-Bromodomain and the united H3(1-15)-(48-57) K56ac peptide, we performed a NMR titration experiment and carefully analyzed the linewidth changes of TRIM66 -GSGS968-1160 (this protein is […]

KD (TRIM66 965-1160 D986A): Weak binding
KD (TRIM66 965-1160 D971A): Weak binding
Kd (TRIM66-MUT968-1160): 19 ± 0.76 µM
Structure (SMILES): C[C@H](N)C(=O)N[C@@H](CCCNC(=N)N)C(=O)N[C@H](C(=O)N[C@@H](CCCCN)C(=O)N[C@@H](CCC(N)=O)C(=O)N[C@H](C(=O)N[C@@H](C)C(=O)N[C@@H](CCCNC(=N)N)C(=O)N[C@@H](CCCCN)C(=O)N[C@@H](CO)C(=O)N[C@H](C(=O)NCC(=O)O)[C@@H](C)O)[C@@H](C)O)[C@@H](C)O [H3_1-12]
